Data: PMC11413853, “Discovery of VU6007496: Challenges in the Development of an M1 Positive Allosteric Modulator Backup Candidate” (ACS Chemical Neuroscience, 2024)
Changes are numbered by the printed parent chain. Read-outs that look alike come from different tables or passages of the source.

Assays:
human M1 = target: T1, human M1 (Homo sapiens, UniProt P11229); experiment: Calcium mobilization assay, human M1 (agonist and PAM modes); type: cell-based; conditions: for hM1 PAM AChmax (%) / hM1 Agonist AChmax (%): % ACh max
T1 sequence (P11229 1-460): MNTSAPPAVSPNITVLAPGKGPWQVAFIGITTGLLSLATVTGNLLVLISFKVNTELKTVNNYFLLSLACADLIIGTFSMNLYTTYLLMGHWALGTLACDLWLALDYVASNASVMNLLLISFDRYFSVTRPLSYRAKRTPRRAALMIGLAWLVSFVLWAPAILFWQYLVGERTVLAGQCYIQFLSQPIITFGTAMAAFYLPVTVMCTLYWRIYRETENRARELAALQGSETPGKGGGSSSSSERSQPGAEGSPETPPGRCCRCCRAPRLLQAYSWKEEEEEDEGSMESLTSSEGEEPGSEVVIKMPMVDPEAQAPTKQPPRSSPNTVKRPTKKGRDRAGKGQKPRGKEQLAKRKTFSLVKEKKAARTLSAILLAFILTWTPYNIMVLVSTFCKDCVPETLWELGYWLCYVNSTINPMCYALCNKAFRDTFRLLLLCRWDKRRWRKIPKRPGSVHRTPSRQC

rat M1 = target: T2, rat M1 (Rattus norvegicus, UniProt P08482); experiment: Calcium mobilization assay, rat M1 (agonist and PAM modes); type: cell-based; conditions: for rM1 PAM AChmax (%) / rM1 Agonist AChmax (%): % ACh max
T2 construct: expressed in transfected cells; host or cells: CHO (stated in general for all functional cell-based assays)
T2 sequence (P08482 1-460): T1 sequence (P11229 1-460) with A5V, T254S, P309S, R320K, A337G, I413V

[1] = Predicted hepatic clearance, human hepatic microsomes; type: in vitro ADME
Protocol: Intrinsic clearance: Human or rat hepatic microsomes (0.5 mg/mL) and 1 µM test compound were incubated in 100 mM potassium phosphate pH 7.4 buffer with 3 mM MgCl2 at 37 °C with constant shaking. After a 5 min preincubation, the reaction was initiated by the addition of NADPH (1 mM). At selected time intervals (0, 3, 7, 15, 25, and 45 min), aliquots were taken and subsequently placed into a 96-well plate containing cold acetonitrile with internal standard (50 ng/mL carbamazepine). Plates were then centrifuged at 3000 rcf (4 °C) for 10 min, and the supernatant was transferred to a separate 96-well plate and diluted 1:1 with water for LC/MS/MS analysis. The in vitro half-life ( 1/2, min, Eq. 1), intrinsic clearance (CLint, mL/min/kg, Eq. 2), and subsequent predicted hepatic clearance (CLhep, mL/min/kg, Eq. 3) was determined employing the […]
where k represents the slope from linear regression analysis of the natural log percent remaining of a test compound as a function of incubation time […]
(2) CLint = in vitroT1/2 x mg microsomes x gram liver x kg body wt ascale-up factors: of 20 (human) or 45 (rat) […]
where Qh (hepatic blood flow, mL/min/kg) is 21 (human) or 70 (rat).
LC/MS/MS Bioanalysis of Samples from Plasma Protein Binding and Intrinsic Clearance […]
Samples were analyzed on a Thermo Electron TSQ Quantum Ultra triple quad mass spectrometer (San Jose, CA) via electrospray ionization (ESI) with two Themo Electron Accella pumps (San Jose, CA), and a Leap Technologies CTC PAL autosampler (Carrboro, NC). Analytes were separated by gradient elution on a dual column system with two Thermo Hypersil Gold (2.1 x 30 mm, 1.9 µm) columns (San Jose, CA) thermostated at 40 °C. HPLC mobile phase A was 0.1% formic acid in water and mobile phase B was 0.1% formic acid in acetonitrile. The gradient started […]
for 0.2 min; returned to 10% B in 0.1 min. The total run time was 1.3 min and the HPLC flow rate was 0.8 mL/min. […]

[2] = PAM mode, read-out: hM1 PAM EC50
[3] = agonist mode, read-out: hM1 Agonist EC50
[4] = hM1 PAM EC50, PAM mode, read-out: hM1 PAM pEC50 (converted)
[5] = PAM mode, read-out: rM1 PAM EC50
[6] = agonist mode, read-out: rM1 Agonist EC50
[7] = agonist mode, read-out: human M1 agonism EC50

Row | SMILES | hM1 PAM AChmax (%) (human M1; PAM mode) | EC50 (human M1; [2]) [nM] | hM1 Agonist AChmax (%) (human M1; agonist mode) | EC50 (human M1; [3]) [nM] | EC50 (human M1; [4]) [nM] | rM1 PAM AChmax (%) (rat M1; PAM mode) | EC50 (rat M1; [5]) [nM] | rM1 Agonist AChmax (%) (rat M1; agonist mode) | EC50 (rat M1; [6]) [nM] | Predicted CLhep, human [1] [mL/min/kg] | EC50 (human M1; [7]) [nM] | EC50 (rat M1; agonist mode, read-out: rat M1 agonism EC50) [nM]
1 | Cn1ccc(-c2ccc(Cc3cc(C(=O)NC4CCOCC4)nc4ccn(C)c34)cc2)n1 [compound 11] | 80 | 228 | 24 | > 10000 | 166 | 91 | 94 | 36 | 7340 | 12 | – | –
2 | Cn1ccc(-c2ccc(Cc3cc(C(=O)NC4CCOCC4)nc4ccsc34)cc2)n1 [compound 12] | 73 | 149 | 38 | 3060 | 132 | 90 | 63 | 32 | 4350 | 7.5 | 3100 | –
3 | Cn1ccc2nc(C(=O)NC3CCOCC3)cc(Cc3ccc(-c4cc[nH]n4)cc3)c21 [compound 24] | 73 | 144 | 36 | – | – | 89 | 56 | 48 | – | 12.8 | 2100 | 3100
